This passage reports IC50 results from patent publication US11292801B2, “Calpain modulators and therapeutic uses thereof” (Blade Therapeutics, Inc., priority 2016, dated 2022).

One test concerns the target T1, Human Calpain 1/NS1 (Homo sapiens, UniProt P07384).
T1 sequence (P07384 1-714): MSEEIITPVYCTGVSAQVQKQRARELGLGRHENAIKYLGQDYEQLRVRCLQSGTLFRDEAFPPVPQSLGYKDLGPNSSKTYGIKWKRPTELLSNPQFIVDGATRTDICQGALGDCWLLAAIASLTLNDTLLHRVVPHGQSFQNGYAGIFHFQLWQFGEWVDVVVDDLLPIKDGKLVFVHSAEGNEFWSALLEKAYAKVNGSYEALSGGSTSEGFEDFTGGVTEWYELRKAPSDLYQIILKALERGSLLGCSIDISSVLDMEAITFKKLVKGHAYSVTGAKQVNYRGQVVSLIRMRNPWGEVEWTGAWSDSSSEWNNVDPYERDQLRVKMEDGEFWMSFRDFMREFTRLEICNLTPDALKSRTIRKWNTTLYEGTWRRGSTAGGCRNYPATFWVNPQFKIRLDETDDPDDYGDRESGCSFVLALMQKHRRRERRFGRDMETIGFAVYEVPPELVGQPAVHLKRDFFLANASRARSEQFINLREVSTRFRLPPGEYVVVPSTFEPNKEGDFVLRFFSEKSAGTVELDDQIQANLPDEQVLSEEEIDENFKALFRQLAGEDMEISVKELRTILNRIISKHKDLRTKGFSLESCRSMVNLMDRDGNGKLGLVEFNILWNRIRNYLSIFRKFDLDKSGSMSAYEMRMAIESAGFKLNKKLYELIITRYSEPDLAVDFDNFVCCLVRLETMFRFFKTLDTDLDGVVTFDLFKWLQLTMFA
T1 sequence (P04632 1-268 partner): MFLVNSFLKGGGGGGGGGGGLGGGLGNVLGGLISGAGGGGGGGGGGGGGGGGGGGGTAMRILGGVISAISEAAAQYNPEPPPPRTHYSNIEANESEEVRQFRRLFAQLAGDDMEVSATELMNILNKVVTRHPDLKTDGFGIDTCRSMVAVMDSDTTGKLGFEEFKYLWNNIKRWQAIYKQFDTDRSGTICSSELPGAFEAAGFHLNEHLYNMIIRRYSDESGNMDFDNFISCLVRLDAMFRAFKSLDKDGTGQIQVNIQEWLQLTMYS
Kind of test: Biochemical inhibition of calpain 1, continuous fluorescence (FRET substrate) assay. Conditions: mean, read-out: Human Calpain 1/NS1 IC50 (nM)_MEAN. As to the method:
(§1) Calpain 1, 2, and 9 activity and inhibition thereof are assessed by means of a continuous fluorescence assay. The SensoLyte 520 Calpain substrate (Anaspec Inc) is optimized for detecting calpain activity. This substrate contains a novel internally quenched 5-FAM/QXL™ 520 FRET pair. Calpains 1, 2, and 9 cleave the FRET substrate into two separate fragments resulting in an increase of 5-FAM fluorescence that is proportional to calpain activity.
(§2) Assays are typically setup in black 384-well plates using automated liquid handling as follows. Calpain assay base buffer typically contains 50 mM Tris, pH˜7.5, 100 mM NaCl and 1 mM DTT. Inhibitors are serially diluted in DMSO and used to setup 2× mixtures with calpains in the aforementioned buffer. After incubation at ambient temperature (25C), the reaction is initiated by adding a 2× mix of the fluorescent peptide substrate and CaCl2) (required for in-situ calpain activation) in the same buffer. Reaction progress curve data are typically collected for 10 min using excitation/emission wavelengths of 490 nm/520 nm on SpectraMax i3× or the FLIPR-Tetra plate readers (Molecular Devices Inc). Reaction rates were calculated from progress curve slopes typically over 1-5 min. Dose response curves (rate vs. log inhibitor concentration) were typically fit to a 4-parameter logistic function to extract IC50 values.

The target of another test is T2, Human Calpain 2/NS1 (Homo sapiens, UniProt P17655).
T2 sequence (P17655 1-700): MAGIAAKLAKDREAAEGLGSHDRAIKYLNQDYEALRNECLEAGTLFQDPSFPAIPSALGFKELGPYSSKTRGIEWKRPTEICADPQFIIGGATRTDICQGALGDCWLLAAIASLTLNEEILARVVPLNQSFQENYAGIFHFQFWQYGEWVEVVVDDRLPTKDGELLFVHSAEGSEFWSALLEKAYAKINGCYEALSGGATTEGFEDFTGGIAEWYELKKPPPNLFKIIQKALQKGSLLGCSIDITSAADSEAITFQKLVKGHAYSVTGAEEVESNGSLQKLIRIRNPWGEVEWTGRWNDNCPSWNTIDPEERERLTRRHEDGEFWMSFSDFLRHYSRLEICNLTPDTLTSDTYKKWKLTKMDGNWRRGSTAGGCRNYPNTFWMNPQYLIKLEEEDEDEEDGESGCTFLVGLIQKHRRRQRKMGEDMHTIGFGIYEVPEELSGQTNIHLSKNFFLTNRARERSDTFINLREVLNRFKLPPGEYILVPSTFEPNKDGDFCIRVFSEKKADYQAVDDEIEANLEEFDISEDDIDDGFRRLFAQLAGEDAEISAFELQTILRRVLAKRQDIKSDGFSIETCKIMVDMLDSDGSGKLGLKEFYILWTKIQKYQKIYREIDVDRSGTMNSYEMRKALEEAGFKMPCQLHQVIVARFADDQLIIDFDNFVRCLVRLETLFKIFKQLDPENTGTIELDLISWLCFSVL
T2 sequence (P04632 1-268 partner): T1 sequence (P04632 1-268 partner)
Kind of test: Biochemical inhibition of calpain 2, continuous fluorescence (FRET substrate) assay. Conditions: mean, read-out: Human Calpain 2/NS1 IC50 (nM)_MEAN. Here is the method:
as §1, §2

For the next test, the target named is T3, Human Calpain 9/NS1 (Homo sapiens, UniProt O14815).
T3 sequence (O14815 1-690): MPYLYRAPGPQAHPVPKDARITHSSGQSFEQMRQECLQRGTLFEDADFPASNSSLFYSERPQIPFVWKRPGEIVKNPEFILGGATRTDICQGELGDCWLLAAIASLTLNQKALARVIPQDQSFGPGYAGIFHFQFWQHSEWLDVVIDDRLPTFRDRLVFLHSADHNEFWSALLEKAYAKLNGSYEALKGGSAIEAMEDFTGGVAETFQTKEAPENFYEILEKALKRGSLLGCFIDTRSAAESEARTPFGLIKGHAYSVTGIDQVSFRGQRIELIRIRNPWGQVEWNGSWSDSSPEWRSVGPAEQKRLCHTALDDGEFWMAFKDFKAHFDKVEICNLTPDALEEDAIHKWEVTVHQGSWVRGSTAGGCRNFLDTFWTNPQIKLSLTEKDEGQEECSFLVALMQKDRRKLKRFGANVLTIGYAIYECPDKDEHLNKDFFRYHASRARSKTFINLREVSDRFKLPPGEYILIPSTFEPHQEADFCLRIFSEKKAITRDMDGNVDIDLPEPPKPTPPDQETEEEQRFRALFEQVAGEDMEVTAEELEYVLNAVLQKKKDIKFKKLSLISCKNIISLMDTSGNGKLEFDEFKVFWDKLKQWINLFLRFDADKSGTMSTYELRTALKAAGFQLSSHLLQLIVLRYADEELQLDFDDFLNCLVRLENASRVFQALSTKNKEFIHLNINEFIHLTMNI
T3 sequence (P04632 1-268 partner): T1 sequence (P04632 1-268 partner)
Kind of test: Biochemical inhibition of calpain 9, continuous fluorescence (FRET substrate) assay. As to conditions: mean, read-out: Human Calpain 9/NS1 IC50 (nM)_MEAN. Here is the method:
as §1, §2

On to `COc1ccc(CNC(=O)C(=O)C2CCCCOCCOCc3ccccc3C(=O)N2)cc1` (stereo not drawn) [Compound 100, N-(4-methoxybenzyl)-2-oxo-2-(12-oxo-1,3,4,6,7,8,9,10,11,12-decahydrobenzo[f][1,4]dioxa[9]azacyclotetradecin-10-yl)acetamide], for which the IC50 on Human Calpain 1/NS1 was above 10000 nM; at Human Calpain 2/NS1, 3000 to 10000 nM; on Human Calpain 9/NS1, below 3000 nM.
Taken in the same sequence, the figures for `NC(=O)C(=O)[C@@H]1CCCCCOc2cccc(c2)-c2ncccc2C(=O)N1` [Compound 130, (S)-2-oxo-2-(11-oxo-3-oxa-10-aza-1(2,3)-pyridina-2(1,3)-benzena-cycloundecaphane-9-yl)acetamide] were below 3000 nM, below 3000 nM and below 3000 nM.
Taken in the same sequence, the figures for `C/C1=C\C[C@@H](C=O)NC(=O)c2cc(C)nn2-c2cccc(c2)OCC1` [Compound 144, (S,E)-1^3,6-dimethyl-11-oxo-1^1H-3-oxa-10-aza-1(1,5)-pyrazola-2(1,3)-benzenacycloundecaphan-6-ene-9-carbaldehyde] were below 3000 nM, below 3000 nM and below 3000 nM.
Consider `COCCOCCOCCNC(=O)C(=O)C1CCCCOCCOCc2ccccc2C(=O)N1` (stereo not drawn) [Compound 122, N-(2-(2-(2-methoxyethoxy)ethoxy)ethyl)-2-oxo-2-(12-oxo-1,3,4,6,7,8,9,10,11,12-decahydrobenzo[f][1,4]dioxa[9]azacyclotetradecin-10-yl)acetamide], for which the IC50 on Human Calpain 1/NS1, at Human Calpain 2/NS1 and on Human Calpain 9/NS1 was above 10000 nM throughout.
Regarding `O=C[C@@H]1CCCCCCOc2ccnc(c2)-c2ccccc2C(=O)N1` [Compound 131, (S)-3-oxo-12-oxa-4-aza-1(2,4)-pyridina-2(1,2)-benzenacyclododecaphane-5-carbaldehyde], the IC50 at Human Calpain 1/NS1, on Human Calpain 2/NS1 and at Human Calpain 9/NS1 was below 3000 nM each time.
As for `O=C[C@@H]1CCCCCCCCc2cccnc2C(=O)N1` [Compound 49, (S)-15-Oxo-6,7,8,9,10,11,12,13,14,15-decahydro-5h-pyrido[2,3-c][1]aza-cyclotridecine-13-carbaldehyde], the results for the IC50 on Human Calpain 1/NS1, on Human Calpain 2/NS1 and at Human Calpain 9/NS1 were above 10000 nM, 3000 to 10000 nM and below 3000 nM, respectively.
Taken in the same sequence, the figures for `O=C(NCc1ccccc1)C(=O)[C@@H]1C/C=C\COCCOCc2ccccc2C(=O)N1` [Compound 3, (S,Z)—N-benzyl-2-oxo-2-(12-oxo-1,3,4,6,9,10,11,12-octahydrobenzo[f][1,4]dioxa[9]azacyclotetradecin-10-yl)acetamide] were above 10000 nM, above 10000 nM and below 3000 nM.
Taken in the same sequence, the figures for `NC(=O)C(=O)[C@@H]1CCCCCOc2ccnc(n2)-c2ccccc2C(=O)N1` [Compound 129, (S)-2-oxo-2-(3-oxo-11-oxa-4-aza-1(2,4)-pyrimidina-2(1,2)-benzena-cycloundecaphane-5-yl)acetamide] were below 3000 nM, below 3000 nM and below 3000 nM.
Taken in the same sequence, the figures for `CCNC(=O)C(=O)[C@@H]1CCCCCCCCc2ccccc2C(=O)N1` [Compound 25, (S)—N-ethyl-2-oxo-2-(1-oxo-2,3,4,5,6,7,8,9,10,11-decahydro-1h-benzo[c][1]aza-cyclotridecin-3-yl)acetamide] were above 10000 nM, above 10000 nM and above 10000 nM.
As to `O=C(NCc1ccncc1)C(=O)C1CCCCOCCOCc2ccccc2C(=O)N1` (stereo not drawn) [Compound 117, 2-Oxo-2-(12-oxo-1,3,4,6,7,8,9,10,11,12-decahydrobenzo[f][1,4]dioxa[9]aza-cyclotetradecin-10-yl)-N-(pyridin-4-ylmethyl)acetamide], the IC50 is above 10000 nM at Human Calpain 1/NS1, 3000 to 10000 nM at Human Calpain 2/NS1 and below 3000 nM on Human Calpain 9/NS1.
As to `O=C[C@@H]1Cc2ccc(cc2)CC=CCc2cccc(c2)-c2ccn(n2)-c2ncccc2C(=O)N1` [Compound 75, (2^2E,10S)-12-oxo-2^1H-11-aza-1(2,3)-pyridina-2(1,3)-pyrazola-3(1,3),8(1,4)-dibenzenacyclododecaphan-5-ene-10-carbaldehyde], the IC50 at Human Calpain 1/NS1, at Human Calpain 2/NS1 and on Human Calpain 9/NS1 was below 3000 nM in each case.
Turning to `O=C[C@@H]1CCCCCCOc2ccccc2C(=O)N1` [Compound 24, (S)-10-Oxo-3,4,5,6,7,8,9,10-octahydro-2h-benzo[b][1]oxa[5]aza-cyclododecine-8-carbaldehyde], the figures for the IC50 at Human Calpain 1/NS1, on Human Calpain 2/NS1 and on Human Calpain 9/NS1 were above 10000 nM, below 3000 nM and below 3000 nM, respectively.
With `CS(=O)(=O)c1ccc(CNC(=O)C(=O)C2CCCCOCCOCc3ccccc3C(=O)N2)cc1` (stereo not drawn) [Compound 121, N-(4-(methylsulfonyl)benzyl)-2-oxo-2-(12-oxo-1,3,4,6,7,8,9,10,11,12-decahydrobenzo[f][1,4]dioxa[9]azacyclotetradecin-10-yl)acetamide], the figures for the IC50 on Human Calpain 1/NS1, on Human Calpain 2/NS1 and at Human Calpain 9/NS1 were above 10000 nM, 3000 to 10000 nM and below 3000 nM, respectively.
On to `O=C[C@@H]1Cc2cccc(c2)CCCCOc2cccc(c2)-c2ncccc2C(=O)N1` [Compound 35, (S)-3-Oxo-12-oxa-4-aza-2(2,3)-pyridina-1,7(1,3)-dibenzenacyclododecaphane-5-carbaldehyde], for which the IC50 at Human Calpain 1/NS1, at Human Calpain 2/NS1 and on Human Calpain 9/NS1 was below 3000 nM throughout.
